Experimental data from patent US20220323411A1, “COMPOSITIONS FOR THE TREATMENT OF SOLID TUMORS” (Raziel Therapeutics Ltd., priority 2019, published 2022).
Marks after values point to notes of the source that are not given here.

Legend:
[1] = system: A549 cells; test: Xenograft Study 1: A549 subcutaneous tumors in nude mice, intratumoral injection; type: in vivo; settings: for Tumor volume 3 weeks after injection (mm^3 ± S.E.M.): first dose day 25, double dose day 32, mean, N=10, initial volume 496; for Reduction in tumor volume vs. vehicle (%): 3 weeks after injection
Procedure: A549 cells were injected subcutaneously to nude mice and allowed to grow to an estimated tumor volume of about 500 mm^3 as determined by caliper. The mice were divided into four groups (N=10 per group), dosed twice via intratumoral injection with either a vehicle (comprising water for injection, benzyl alcohol, propylene glycol, and Tween-80) or with 1 mg, 2.5 mg, or 5 mg of 5-(3, 6-dibromo-9H-carbazol-9-yl)-N,N,N-trimethylpentan-1-aminium chloride according to the experimental design shown in Table 1 below:
For three weeks post-injection, tumor size was determined by caliper and tumor volume was calculated. Mean tumor volumes for the various cohorts are summarized in Table 2 below and graphically in FIG. 1 (arrows indicate treatment days), while the mice's change in body weight is summarized in FIG. 2.

[2] = system: A549 cells; test: Xenograft Study 2: A549 subcutaneous tumors in nude mice, intratumoral injection; type: in vivo
Procedure: A549 cells were injected subcutaneously to nude mice and allowed to grow to an estimated tumor volume of about 300 mm^3 as determined by caliper. The mice were divided into three groups (N=10 per group), dosed three times via intratumoral injection with either a vehicle (comprising water for injection, benzyl alcohol, propylene glycol, and Tween-80) or with 5 mg of […])-N,N,N-trimethylpentan-1-aminium chloride, or not injected at all, according to the experimental design shown in Table 3 below:
For three weeks post-injection, tumor size was determined by caliper and tumor volume was calculated. Median tumor volumes for the various cohorts are summarized in Table 4 below and graphically in FIG. 3 (arrows indicate treatment days), while the mice's change in body weight is summarized in FIG. 4.

[3] = 5 mg intratumoral, dosed three times

In the case of `C[N+](C)(C)CCCCCn1c2ccc(Br)cc2c2cc(Br)ccc21` [Test Compound, 5-(3,6-dibromo-9H-carbazol-9-yl)-N,N,N-trimethylpentan-1-aminium chloride], the “Tumor volume 3 weeks after injection (mm^3 ± S.E.M.)” value ([1]; 1 mg/mouse intratumoral) is reported as 1753 (±80) mm^3, the “Reduction in tumor volume vs. vehicle (%)” value ([1]; 1 mg/mouse intratumoral, P-value vs. vehicle 0.86) is reported as 7.7% and the “Tumor volume 3 weeks after injection (mm^3 ± S.E.M.)” value ([1]; 2.5 mg/mouse intratumoral) is reported as 1512 (±149) mm^3. For the same molecule, the “Reduction in tumor volume vs. vehicle (%)” value ([1]; 2.5 mg/mouse intratumoral, P-value vs. vehicle 0.17) was 20.4%, the “Effect on mouse body weight” value ([1]; 5 mg intratumoral, dosed twice) was “did not affect mouse body weight” and the “Effect on tumor size” value ([1]; 5 mg intratumoral, dosed twice) was “significantly reduced tumor size”. For the same molecule, the “Tumor volume 3 weeks after injection (mm^3 ± S.E.M.)” value ([1]; 5 mg/mouse intratumoral) was 1309 (±229) mm^3, the “Reduction in tumor volume vs. vehicle (%)” value ([1]; 5 mg/mouse intratumoral, P-value vs. vehicle 0.03) was 31.1* % and the “Effect on mouse body weight” value [2, 3] was “did not affect mouse body weight”. For the same molecule, the “Effect on tumor size” value [2, 3] was “significantly reduced tumor size”, the “Reduction in tumor volume vs. non-injected group (%)” value ([2]; 5 mg/mouse intratumoral once a week for 3 weeks, P-value vs. non-injected group 0.02) was 46* % and the Tumor volume 3 weeks after injection (median) ([2]; 5 mg/mouse intratumoral once a week for 3 weeks, median, N=10, initial volume 287) was 648 mm³.
